Reference: ChEMBL document CHEMBL4477196, “Rhodocomatulin-Type Anthraquinones from the Australian Marine Invertebrates Clathria hirsuta and Comatula rotalaria” (2016)

Test system: MCF7
Test: Growth inhibition of human MCF7 cells at 10 uM incubated for 72 hrs by SRB assay
Format: functional
Conditions: MCF7, 72 h, read-out: GI

CCCC(=O)c1c(O)cc(O)c2c1C(=O)c1cc(OC)cc(OC)c1C2=O
inhibition of growth at 10 µM: 9%
